Tests used:
LEE011/Ribociclib [1] = compound: T1, CN(C)C(=O)c1cc2cnc(Nc3ccc(N4CCNCC4)cn3)nc2n1C1CCCC1 [LEE011/Ribociclib]
Taselisib/GDC0032 = compound: Cc1nc(-c2cn3c(n2)-c2ccc(-c4cnn(C(C)(C)C(N)=O)c4)cc2OCC3)n(C(C)C)n1 [Taselisib/GDC0032]
Volasertib/BI6727 = compound: CC[C@@H]1C(=O)N(C)c2cnc(Nc3ccc(C(=O)N[C@H]4CC[C@H](N5CCN(CC6CC6)CC5)CC4)cc3OC)nc2N1C(C)C [Volasertib/BI6727]
[2] = compound: CCN1CCN(Cc2ccc(Nc3ncc(F)c(-c4cc(F)c5nc(C)n(C(C)C)c5c4)n3)nc2)CC1
Tivantinib/ARQ197 = compound: O=C1NC(=O)[C@@H](c2cn3c4c(cccc24)CCC3)[C@@H]1c1c[nH]c2ccccc12 [Tivantinib/ARQ197]
Pictilisib/GDC0941 = compound: CS(=O)(=O)N1CCN(Cc2cc3nc(-c4cccc5[nH]ncc45)nc(N4CCOCC4)c3s2)CC1 [Pictilisib/GDC0941]
ABT-737 = compound: CN(C)CC[C@H](CSc1ccccc1)Nc1ccc(S(=O)(=O)NC(=O)c2ccc(N3CCN(Cc4ccccc4-c4ccc(Cl)cc4)CC3)cc2)cc1[N+](=O)[O-] [ABT-737]
Neratinib/HKI272 [3] = compound: T2, CCOc1cc2ncc(C#N)c(Nc3ccc(OCc4ccccn4)c(Cl)c3)c2cc1NC(=O)/C=C/CN(C)C [Neratinib/HKI272]
Ceritinib/LDK378 = compound: Cc1cc(Nc2ncc(Cl)c(Nc3ccccc3S(=O)(=O)C(C)C)n2)c(OC(C)C)cc1C1CCNCC1 [Ceritinib/LDK378]
BSJ-03-123 [4] = compound: T3, CC(=O)c1c(C)c2cnc(Nc3ccc(N4CCN(CCOCCOCCOCCNC(=O)COc5cccc6c5C(=O)N(C5CCC(=O)NC5=O)C6=O)CC4)cn3)nc2n(C2CCCC2)c1=O [BSJ-03-123]
INK128/MLN0128 = compound: CC(C)n1nc(-c2ccc3oc(N)nc3c2)c2c(N)ncnc21 [INK128/MLN0128]
THZ531 = compound: CN(C)C/C=C/C(=O)Nc1ccc(C(=O)N2CCC[C@@H](Nc3ncc(Cl)c(-c4c[nH]c5ccccc45)n3)C2)cc1 [THZ531]
Paclitaxel = compound: CC(=O)O[C@H]1C(=O)[C@@]2(C)[C@H]([C@H](OC(=O)c3ccccc3)[C@]3(O)C[C@H](OC(=O)[C@H](O)[C@@H](NC(=O)c4ccccc4)c4ccccc4)C(C)=C1C3(C)C)[C@]1(OC(C)=O)CO[C@@H]1C[C@@H]2O [Paclitaxel]
[5] = compound: COc1ccc2c(c1)[C@]1(C[C@H]1c1ccc3c(/C=C/c4ccc(CN5C[C@@H](C)O[C@@H](C)C5)cc4)n[nH]c3c1)C(=O)N2
LEE011/Ribociclib [6] = compound: T1, LEE011/Ribociclib; assay: GR value, 72 h; higher = faster growth (1 = untreated, <0 = killing);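 also: breast cancer and non-malignant breast epithelial lines, nine half-log doses, viable cells counted by Hoechst and LIVE/DEAD dye imaging versus time-zero plates and DMSO controls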
[7] = compound: CCc1cnn2c(NCc3ccc[n+]([O-])c3)cc(N3CCCC[C@H]3CCO)nc12; assay: as above
[8] = compound: CCN1CCN(Cc2ccc(Nc3ncc(F)c(-c4cc(F)c5nc(C)n(C(C)C)c5c4)n3)nc2)CC1; assay: as above
YKL-5-124 = compound: C=CC(=O)Nc1ccc(C(=O)Nc2[nH]nc3c2CN(C(=O)N[C@H](CN(C)C)c2ccccc2)C3(C)C)cc1 [YKL-5-124]; assay: as above
Neratinib/HKI272 [9] = compound: T2, Neratinib/HKI272; assay: as above
BSJ-03-123 [10] = compound: T3, BSJ-03-123; assay: as above
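For GR50, 72 h in this document: breast cancer and non-malignant breast epithelial cell lines, Deep Dye Drop or Dye Drop imaging, nine half-log doses, GR normalized to time-zero plates and DMSO-only controls.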

PDX1258
GR50, 72 h (LEE011/Ribociclib [1]): > 10 µM
GR50, 72 h (Taselisib/GDC0032): 0.996 µM
GR50, 72 h (Volasertib/BI6727): 0.00743 µM
GR50, 72 h [2]: 0.674 µM
GR50, 72 h (Tivantinib/ARQ197): 0.397 µM
GR50, 72 h (Pictilisib/GDC0941): 1.7 µM
GR50, 72 h (ABT-737): > 10 µM
GR50, 72 h (Neratinib/HKI272 [3]): 1.1 µM
GR50, 72 h (Ceritinib/LDK378): 2.08 µM
GR50, 72 h (BSJ-03-123 [4]): 4.91 µM
GR50, 72 h (INK128/MLN0128): 0.044 µM
GR50, 72 h (THZ531): 0.0492 µM
GR50, 72 h (Paclitaxel): 0.00215 µM
GR50, 72 h [5]: 0.00294 µM
GR value (LEE011/Ribociclib [6]; 0.001 µM): 1.11 GR
GR value (LEE011/Ribociclib [6]; 0.003162 µM): 1.12 GR
GR value (LEE011/Ribociclib [6]; 0.01 µM): 0.914 GR
GR value (LEE011/Ribociclib [6]; 0.03162 µM): 1.18 GR
GR value (LEE011/Ribociclib [6]; 0.1 µM): 1.19 GR
GR value (LEE011/Ribociclib [6]; 0.3162 µM): 1.11 GR
GR value (LEE011/Ribociclib [6]; 1 µM): 0.93 GR
GR value (LEE011/Ribociclib [6]; 3.162 µM): 1.14 GR
GR value (LEE011/Ribociclib [6]; 10 µM): 1.02 GR
GR value ([7]; 0.0001 µM): 1.05 GR
GR value ([7]; 0.0003162 µM): 1.08 GR
GR value ([7]; 0.001 µM): 1.13 GR
GR value ([7]; 0.003162 µM): 1.08 GR
GR value ([7]; 0.01 µM): 0.655 GR
GR value ([7]; 0.03162 µM): -0.491 GR
GR value ([7]; 0.1 µM): -0.587 GR
GR value ([7]; 0.3162 µM): -0.579 GR
GR value ([7]; 1 µM): -0.628 GR
GR value ([8]; 0.001 µM): 1.06 GR
GR value ([8]; 0.003162 µM): 1.1 GR
GR value ([8]; 0.01 µM): 1.03 GR
GR value ([8]; 0.03162 µM): 0.961 GR
GR value ([8]; 0.1 µM): 0.911 GR
GR value ([8]; 0.3162 µM): 0.719 GR
GR value ([8]; 1 µM): 0.375 GR
GR value ([8]; 3.162 µM): -0.0697 GR
GR value ([8]; 10 µM): -0.334 GR
GR value (YKL-5-124; 0.001 µM): 0.686 GR
GR value (YKL-5-124; 0.003162 µM): 0.363 GR
GR value (YKL-5-124; 0.01 µM): 0.231 GR
GR value (YKL-5-124; 0.03162 µM): 0.0382 GR
GR value (YKL-5-124; 0.1 µM): 0.0596 GR
GR value (YKL-5-124; 0.3162 µM): -0.0277 GR
GR value (YKL-5-124; 1 µM): -0.147 GR
GR value (YKL-5-124; 3.162 µM): -0.294 GR
GR value (YKL-5-124; 10 µM): -0.519 GR
GR value (Neratinib/HKI272 [9]; 0.0003162 µM): 1.07 GR
GR value (Neratinib/HKI272 [9]; 0.001 µM): 1.02 GR
GR value (Neratinib/HKI272 [9]; 0.003162 µM): 1.1 GR
GR value (Neratinib/HKI272 [9]; 0.01 µM): 1 GR
GR value (Neratinib/HKI272 [9]; 0.03162 µM): 0.938 GR
GR value (Neratinib/HKI272 [9]; 0.1 µM): 0.772 GR
GR value (Neratinib/HKI272 [9]; 0.3162 µM): 0.749 GR
GR value (Neratinib/HKI272 [9]; 1 µM): 0.548 GR
GR value (Neratinib/HKI272 [9]; 3.162 µM): 0.195 GR
GR value (BSJ-03-123 [10]; 0.001 µM): 1.13 GR
GR value (BSJ-03-123 [10]; 0.003162 µM): 0.919 GR
GR value (BSJ-03-123 [10]; 0.01 µM): 1.2 GR
GR value (BSJ-03-123 [10]; 0.03162 µM): 1.29 GR
GR value (BSJ-03-123 [10]; 0.1 µM): 1.08 GR
GR value (BSJ-03-123 [10]; 0.3162 µM): 1.02 GR
GR value (BSJ-03-123 [10]; 1 µM): 0.916 GR
GR value (BSJ-03-123 [10]; 3.162 µM): 0.819 GR
GR value (BSJ-03-123 [10]; 10 µM): -0.415 GR

— the supplement of paper PMC9663587
